Results as given in ChEMBL document CHEMBL2069185, “Eunicidiol, an anti-inflammatory dilophol diterpene from Eunicea fusca” (J Nat Prod, 2012).

How the values were obtained:
[1] = test system: Mus musculus; assay: Antiinflammatory activity in CD1 mouse ear edema model assessed as reduction in phorbol myristate acetate-induced edema administered topically at right ear 1 hr before phorbol myristate acetate challenge and measured 6 to 24 hrs post dose; format: functional
[2] = test system: Mus musculus; assay: Toxicity in CD1 mouse model phorbol myristate acetate-induced ear edema model at 0.1 mg/ear administered topically at right ear 1 hr before phorbol myristate acetate challenge and measured 24 hrs post dose; format: organism-based; details: in vivo, topical_or_ocular
[3] = test system: Mus musculus; assay: Antiinflammatory activity in CD1 mouse ear edema model assessed as reduction in phorbol myristate acetate-induced edema at 0.1 mg/ear administered topically at right ear 1 hr before phorbol myristate acetate challenge and measured 24 hrs post dose; format: functional

SMILES | inhibition (INH) [1] [%] | Activity [2] | inhibition (INH) [3] [%]
CC(=O)O[C@@H]1[C@@H](O[C@H]2CC[C@H](C)[C@@]3(C)C[C@@H](/C(C)=C/C=C/C(C)(C)O)CC[C@H]23)OC[C@@H](O)[C@H]1O | 85 | – | –
C=C1CC/C=C(\C)CC[C@H](/C(C)=C/C=C/C(C)(C)O)C[C@H]1O (relative stereo) | – | Non-toxic | –
C/C1=C\C[C@@H](/C(C)=C/C=C/C(C)(C)O)CC/C(C)=C/CC1 [EUNICOL] | – | Non-toxic | 0.1
C=C[C@@]1(C)CC[C@H](/C(C)=C/C=C/C(C)(C)O)C[C@@H]1C(=C)C [FUSCOL] | – | Non-toxic | –
C=C[C@@]1(C)CC[C@H](/C(C)=C/C=C/C(C)(C)O[C@@H]2OC[C@@H](O)[C@@H](O)[C@@H]2O)C[C@@H]1C(=C)C [FUSCOSIDE B] | 52 | – | –
